This passage reports IC50 results from patent US12662491B2 (Redona Therapeutics, Inc., priority 2020, dated 2026).

The structures appear in SMILES notation.

The target of this assay is T1, Zcchc11 enzyme (Homo sapiens, UniProt Q5TAX3).
T1 construct: made in house; host or cells: HEK293 cells (Zcchc11); E. coli Rosetta II (LIN28A)
T1 sequence (Q5TAX3 212-1420): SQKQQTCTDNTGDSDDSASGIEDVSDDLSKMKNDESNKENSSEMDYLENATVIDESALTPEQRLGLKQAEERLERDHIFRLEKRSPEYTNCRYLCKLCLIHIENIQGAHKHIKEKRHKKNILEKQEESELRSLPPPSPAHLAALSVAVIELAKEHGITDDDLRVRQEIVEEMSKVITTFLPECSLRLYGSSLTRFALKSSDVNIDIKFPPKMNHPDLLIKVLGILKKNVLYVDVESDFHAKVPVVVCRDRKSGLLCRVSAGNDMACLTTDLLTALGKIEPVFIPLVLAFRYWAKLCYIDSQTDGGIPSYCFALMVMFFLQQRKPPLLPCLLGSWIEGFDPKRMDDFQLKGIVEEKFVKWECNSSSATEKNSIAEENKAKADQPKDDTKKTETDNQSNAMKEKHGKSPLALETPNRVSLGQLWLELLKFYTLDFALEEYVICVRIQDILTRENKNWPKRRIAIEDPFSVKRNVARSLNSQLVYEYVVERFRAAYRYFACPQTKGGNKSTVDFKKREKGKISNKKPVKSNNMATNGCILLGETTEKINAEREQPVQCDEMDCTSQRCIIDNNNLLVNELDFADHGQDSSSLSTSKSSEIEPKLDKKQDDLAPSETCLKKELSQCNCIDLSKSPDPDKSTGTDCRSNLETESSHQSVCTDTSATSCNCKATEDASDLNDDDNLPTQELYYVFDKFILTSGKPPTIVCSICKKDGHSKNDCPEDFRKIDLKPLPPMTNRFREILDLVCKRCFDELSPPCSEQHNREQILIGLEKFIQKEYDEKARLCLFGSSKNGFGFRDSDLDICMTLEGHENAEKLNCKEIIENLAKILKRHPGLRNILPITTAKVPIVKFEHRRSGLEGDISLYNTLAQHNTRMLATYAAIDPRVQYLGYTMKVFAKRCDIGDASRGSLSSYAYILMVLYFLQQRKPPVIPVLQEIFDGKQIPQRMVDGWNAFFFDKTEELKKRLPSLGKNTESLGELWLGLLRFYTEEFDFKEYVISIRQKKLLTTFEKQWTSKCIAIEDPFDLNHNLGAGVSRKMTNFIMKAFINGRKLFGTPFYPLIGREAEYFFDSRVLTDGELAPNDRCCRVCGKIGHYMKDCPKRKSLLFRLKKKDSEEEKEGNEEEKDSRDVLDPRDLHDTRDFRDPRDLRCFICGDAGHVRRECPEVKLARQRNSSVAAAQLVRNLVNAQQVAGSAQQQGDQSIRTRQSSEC
As to the kind of experiment: TUTase assay (Zcchc11 assay, Lin28a-dependent polyuridylation of pre-let-7). It is filed as biochemical. To be noted: Lin28a-dependent Zcchc11 (Z11) TUTase assay; read-out: Potency Lin28a-dep Z11 IC50. In a few lines: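 Readout: time-dependent quench of 5′-fluorescein pre-let-7 (2 nM) as 3′-rhodamine A20 probe anneals to poly(U) tails. Enzyme 0.2 nM Zcchc11 (res. 212-1420), LIN28A 10 nM, UTP 5 uM; pH 7.3 HEPES, 150 mM KCl, 5 mM MgCl2, RT. 4-parameter IC50; 100% = DMSO, 0% = no UTP.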
As to `Cc1cccnc1OC[C@H]1CCCN1c1cc2c(cc1F)c(=O)c(C(=O)O)cn2C1CC(O)C1` (stereo partly drawn) [Example 362, (R)-6-fluoro-1-(3-hydroxycyclo-butyl)-7-(2-(((3-methylpyridin-2-yl)oxy)methyl)pyrrolidin-1-yl)-4-oxo-1,4-dihydroquinoline-3-carboxylic acid], the IC50 – broadly, the concentration that gives 50% inhibition – is not above 1000 nM. For `CC1(n2cc(C(=O)O)c(=O)c3cc(F)c(N4CCC[C@@H]4COc4ccccn4)cc32)CCC1` [Example 363, (R)-6-fluoro-1-(1-methylcyclo-butyl)-4-oxo-7-(2-((pyridin-2-yloxy)methyl)pyrrolidin-1-yl)-1,4-dihydro-quinoline-3-carboxylic acid] the value was 1000 to 10000 nM.

Take `O=C(O)c1cn(-c2cnc(O)cn2)c2cc(N3CCC[C@@H]3COc3ncccc3Cl)c(Cl)cc2c1=O` [Example 364, 6-Chloro-7-[(2R)-2-{[(3-chloropyridin-2-yl)oxy]methyl}pyrrolidin-1-yl]-1-(5-hydroxy-pyrazin-2-yl)-4-oxo-1,4-dihydroquinoline-3-carboxylic acid]: the IC50 is not above 1000 nM.

On to `Cc1cccnc1OC[C@H]1CCCN1c1cc2c(cc1Br)c(=O)c(C(=O)O)cn2C1(C)CC1` [Example 365, 6-Bromo-1-(1-methylcyclo-propyl)-7-[(2R)-2-{[(3-methyl-pyridin-2-yl)oxy]methyl}pyrrolidin-1-yl]-4-oxo-1,4-dihydroquinoline-3-carboxylic acid], for which the IC50 was in the range of 1000 to 10000 nM. As to `Cc1cccnc1OC[C@H]1CCCN1c1cc2c(cc1Cl)c(=O)c(C(=O)O)cn2C1CNC1` [Example 366, 1-(Azetidin-3-yl)-6-chloro-7-[(2R)-2-{[(3-methyl-pyridin-2-yl)oxy]methyl}pyrrolidin-1-yl]-4-oxo-1,4-dihydroquinoline-3-carboxylic acid], the IC50 is 1000 to 10000 nM. For `O=C(O)c1cn(C2CCNC2)c2cc(N3CCC[C@@H]3COc3ncccc3Cl)c(Cl)cc2c1=O` (stereo partly drawn) [Example 367, 6-chloro-7-[(2R)-2-{[(3-chloro-pyridin-2-yl)oxy)methyl}pyrrolidin-1-yl]-4-oxo-1-(pyrrolidin-3-yl)-1,4-dihydroquinoline-3-carboxylic acid] the value was 1000 to 10000 nM; for `O=C(O)c1cn(C2CCNCC2)c2cc(N3CCC[C@@H]3COc3ncccc3Cl)c(Cl)cc2c1=O` [Example 368, 6-chloro-7-[(2R)-2-{[(3-chloropyridin-2-yl)oxy]methyl}pyrrolidin-1-yl]-4-oxo-1-(piperidin-4-yl)-1,4-dihydroquinoline-3-carboxylic acid], 1000 to 10000 nM; for `O=C(O)c1cn(C2CC3(CNC3)C2)c2cc(N3CCC[C@@H]3COc3ncccc3Cl)c(Cl)cc2c1=O` [Example 369, 1-{2-Azaspiro[3.3]heptan-6-yl}-6-chloro-7-[(2R)-2-{[(3-chloropyridin-2-yl)oxy]methyl}pyrrolidin-1-yl]-4-oxo-1,4-dihydroquinoline-3-carboxylic acid], 1000 to 10000 nM. For `CC(=O)Nc1ccc(-n2cc(C(=O)O)c(=O)c3cc(F)c(N4CCC[C@@H]4COc4ccccn4)cc32)cc1` [Example 370, (R)-1-(4-acetamidophenyl)-6-fluoro-4-oxo-7-(2-((pyridin-2-yloxy)methyl)pyrrolidin-1-yl)-1,4-dihydro-quinoline-3-carboxylic acid] the value was not above 1000 nM; for `CS(=O)(=O)Nc1ccc(-n2cc(C(=O)O)c(=O)c3cc(F)c(N4CCC[C@@H]4COc4ccccn4)cc32)cc1` [Example 371, (R)-6-fluoro-1-(4-(methyl-sulfonamido)phenyl)-4-oxo-7-(2-((pyridin-2-yloxy)methyl)pyrrolidin-1-yl)-1,4-dihydro-quinoline-3-carboxylic acid], not above 1000 nM. In the case of `O=C(O)c1cn(-c2ccc(CO)cc2)c2cc(N3CCC[C@@H]3COc3ccccn3)c(F)cc2c1=O` [Example 372, (R)-6-fluoro-1-(4-(hydroxymethyl)phenyl)-4-oxo-7-(2-((pyridin-2-yloxy)methyl)pyrrolidin-1-yl)-1,4-dihydroquinoline-3-carboxylic acid], the IC50 was not above 1000 nM.

With `O=C(O)c1cn(-c2ccccc2F)c2cc(N3CCC[C@@H]3COc3ccccn3)c(F)cc2c1=O` [Example 373, (R)-6-fluoro-1-(2-fluorophenyl)-4-oxo-7-(2-((pyridin-2-yloxy)methyl)pyrrolidin-1-yl)-1,4-dihydroquinoline-3-carboxylic acid], the half-inhibitory concentration (IC50) lay in the range of 1000 to 10000 nM. Under `O=C(O)c1cn(-c2ccc(CO)cc2F)c2cc(N3CCC[C@@H]3COc3ccccn3)c(F)cc2c1=O` [Example 374, (R)-6-fluoro-1-(2-fluoro-4-(hydroxymethyl)phenyl)-4-oxo-7-(2-((pyridin-2-yloxy)methyl)pyrrolidin-1-yl)-1,4-dihydroquinoline-3-carboxylic acid] stands not above 1000 nM; under `O=C(O)c1cn(-c2cccc(F)c2)c2cc(N3CCC[C@@H]3COc3ccccn3)c(F)cc2c1=O` [Example 375, (R)-6-fluoro-1-(3-fluorophenyl)-4-oxo-7-(2-((pyridin-2-yloxy)methyl)pyrrolidin-1-yl)-1,4-dihydroquinoline-3-carboxylic acid], 1000 to 10000 nM; under `O=C(O)c1cn(-c2cccc(F)c2F)c2cc(N3CCC[C@@H]3COc3ccccn3)c(F)cc2c1=O` [Example 376, (R)-1-(2,3-difluorophenyl)-6-fluoro-4-oxo-7-(2-((pyridin-2-yloxy)methyl)pyrrolidin-1-yl)-1,4-dihydroquinoline-3-carboxylic acid], 1000 to 10000 nM.

In the case of `O=C(O)c1cn(-c2ccc(Cl)cc2)c2cc(N3CCC[C@@H]3COc3ccccn3)c(F)cc2c1=O` [Example 377, (R)-1-(4-chlorophenyl)-6-fluoro-4-oxo-7-(2-((pyridin-2-yloxy)methyl)pyrrolidin-1-yl)-1,4-dihydroquinoline-3-carboxylic acid], the concentration for half-maximal inhibition (IC50) is not above 1000 nM. For `O=C(O)c1cn(-c2ccc(F)cc2)c2cc(N3CCC[C@@H]3COc3ccccn3)c(F)cc2c1=O` [Example 378, (R)-6-fluoro-1-(4-fluorophenyl)-4-oxo-7-(2-((pyridin-2-yloxy)methyl)pyrrolidin-1-yl)-1,4-dihydroquinoline-3-carboxylic acid], the IC50 is not above 1000 nM. With `O=C(O)c1cn(-c2ccc(F)c(F)c2)c2cc(N3CCC[C@@H]3COc3ccccn3)c(F)cc2c1=O` [Example 379, (R)-1-(3,4-difluorophenyl)-6-fluoro-4-oxo-7-(2-((pyridin-2-yloxy)methyl)pyrrolidin-1-yl)-1,4-dihydroquinoline-3-carboxylic acid], the IC50 was 1000 to 10000 nM.

In the case of `O=C(O)c1cn(-c2ccc(F)cn2)c2cc(N3CCC[C@@H]3COc3ccccn3)c(F)cc2c1=O` [Example 380, (R)-6-fluoro-1-(5-fluoropyridin-2-yl)-4-oxo-7-(2-((pyridin-2-yloxy)methyl)pyrrolidin-1-yl)-1,4-dihydroquinoline-3-carboxylic acid], the concentration for half-maximal inhibition (IC50) lay in the range of 1000 to 10000 nM. Under `O=C(O)c1cn(-c2ccc(O)cc2F)c2cc(N3CCC[C@@H]3COc3ccccn3)c(F)cc2c1=O` [Example 381, (R)-6-fluoro-1-(2-fluoro-4-hydroxyphenyl)-4-oxo-7-(2-((pyridin-2-yloxy)methyl)pyrrolidin-1-yl)-1,4-dihydroquinoline-3-carboxylic acid] stands 1000 to 10000 nM. Under `O=C(O)c1cn(-c2ccc(O)cc2)c2cc(N3CCC[C@@H]3COc3ccccn3)c(F)cc2c1=O` [Example 382, (R)-6-fluoro-1-(4-hydroxyphenyl)-4-oxo-7-(2-((pyridin-2-yloxy)methyl)pyrrolidin-1-yl)-1,4-dihydroquinoline 3-carboxylic acid] stands not above 1000 nM; under `O=C(O)c1cn(-c2ccc(O)cc2C(F)(F)F)c2cc(N3CCC[C@@H]3COc3ccccn3)c(F)cc2c1=O` [Example 383, (R)-6-fluoro-1-(4-hydroxy-2-(trifluoromethyl)phenyl)-4-oxo-7-(2-((pyridin-2-yloxy)methyl)pyrrolidin-1-yl)-1,4-dihydroquinoline-3-carboxylic acid], 10000 to 50000 nM.
